Test results: patent US6710047B2, “Phthalazines with angiogenesis inhibiting activity” (Novartis AG, priority 1997, dated 2004)
Structures can show the parent of a compound that is named as a salt.

Columns and labels:
PDGF-receptor kinase = experiment: Inhibition of PDGF-receptor kinase (method of Trinks et al.); type: biochemical
Experimental: An inhibitory effect can also be found especially on PDGF-receptor kinase, which is determined according to the method described by Trinks et al. (see J. Med. Chem. 37(7): 1015-27 [1994]). Inhibitory activity is shown here in the micromolar range using a compound of formula I (or an N-oxide thereof); […]

[1] = target: T1, Flt-1 VEGF-receptor tyrosine kinase (Homo sapiens, UniProt P17948); experiment: Test for activity against Flt-1 VEGF-receptor tyrosine kinase
T1 sequence (P17948 827-1158 limits assumed): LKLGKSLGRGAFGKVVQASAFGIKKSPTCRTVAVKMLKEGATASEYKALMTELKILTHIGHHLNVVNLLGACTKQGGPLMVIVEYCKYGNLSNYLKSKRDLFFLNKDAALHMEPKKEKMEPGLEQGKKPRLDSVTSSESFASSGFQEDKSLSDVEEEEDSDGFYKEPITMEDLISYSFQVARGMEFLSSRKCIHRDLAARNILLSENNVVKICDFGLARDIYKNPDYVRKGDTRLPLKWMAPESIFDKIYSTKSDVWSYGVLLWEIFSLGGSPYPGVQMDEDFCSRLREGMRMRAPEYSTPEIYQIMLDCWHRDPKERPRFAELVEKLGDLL
Experimental: Test for activity against VEGF-receptor tyrosine kinase. The test is conducted using Flt-1 VEGF-receptor tyrosine kinase. […] The reaction is then ended by the addition of 10 μl 0.25 M ethylenediaminetetraacetate (EDTA) pH 7. Using a multichannel dispenser (LAB SYSTEMS, USA), an aliquot of 20 μl is applied to a PVDF (=polyvinyl difluoride) Immobilon P membrane (Millipore, USA), incorporating a Millipore microtiter filter manifold, and connected to a vacuum.
The test is conducted using Flt-1 VEGF-receptor tyrosine kinase, as described hereinabove.

IC50 (PDGF-receptor kinase) [nM]	melting point [°C]	IC50 [1] [nM]	Compound
~1000	–	–	Clc1ccc(Nc2nnc(Cc3ccncc3)c3ccccc23)cc1 [Example 1, 1-(4-Chloroanilino)-4-(4-pyridylmethyl)phthalazine dihydrochloride]
–	163 to 164	277	CCc1ccc(Nc2nnc(Cc3ccncc3)c3ccccc23)cc1 [Example 44A, 1-(4-Ethylanilino)-4-(4-pyridylmethyl)phthalazine]
–	180 to 181	345	Cc1ccc(Nc2nnc(Cc3ccncc3)c3ccccc23)cc1C [Example 45]
–	185 to 187	211	Fc1ccc(Nc2nnc(Cc3ccncc3)c3ccccc23)cc1Cl [Example 42, 1-(3-Chloro-4-fluoroanilino)-4-(4-pyridylmethyl)phthalazine]
–	195 to 197	515	COc1ccc(Nc2nnc(Cc3ccncc3)c3ccccc23)cc1Cl [Example 23, 1-(3-Chloro-4-methoxyanilino)-4-(4-pydridylmethyl)phthalazine]
–	148 to 149	401	CSc1cccc(Nc2nnc(Cc3ccncc3)c3ccccc23)c1 [Example 67D]
–	210 to 212	42	Cc1ccc(Nc2nnc(Cc3ccncc3)c3ccccc23)cc1F [Example 44C, 1-(3-Fluoro-4-methylanilino)-4-(4-pyridylmethyl)phthalazine]
–	137 to 138	640	c1ccc(CNc2nnc(Cc3ccncc3)c3ccccc23)cc1 [Example 7, 1-Benzylamino-4-(4-pyridylmethyl)phthalazine]
–	201 to 202	180	Brc1ccc(Nc2nnc(Cc3ccncc3)c3ccccc23)cc1 [Example 22, 1-(4-Bromoanilino)-4-(4-pyridylmethyl)phthalazine]
–	234 to 236	742	CC(=O)c1ccc(Nc2nnc(Cc3ccncc3)c3ccccc23)cc1O [Example 69]
–	190 to 191	740	COc1ccccc1Nc1nnc(Cc2ccncc2)c2ccccc12 [Example 14, 1-(2-Methoxyanilino)-4-(4-pyridylmethyl)phthalazine]
–	227 to 228	1000	Clc1ccc(Nc2nnc(Cc3ccncc3)c3cnccc23)cc1 [Example 75, 1-(4-Chloroanilino)-4-(4-pyridylmethyl)pyrido[3,4-d]pyridazine]
–	223 to 224	490	CCOc1ccc(Nc2nnc(Cc3ccncc3)c3ccccc23)cc1 [Example 44E, 1-(4-Ethoxyanilino)-4-(4-pyridylmethyl)phthalazine]
–	129 to 131	290	Fc1ccc(Nc2nnc(Cc3ccncc3)c3ccccc23)cc1 [Example 17, 1-(4-Fluoroanilino)-4-(4-pyridylmethyl)phthalazine]
–	139 to 141	195	Clc1ccc(Nc2nnc(OCc3ccncc3)c3ccccc23)cc1 [Example 50, 1-(4-Chloroanilino)-4-(4-pyridylmethoxy)phthalazine]
–	249 to 251	500	CS(=O)(=O)O.CS(=O)(=O)O.CS(=O)(=O)O.Nc1cccc(Nc2nnc(Cc3ccncc3)c3ccccc23)c1 [Example 20, 1-(3-Aminoanilino)-4-(4-pyridylmethyl)phthalazine trimesylate]
–	163 to 165	7300	c1ccc2c(NC3CCCC3)nnc(Cc3ccncc3)c2c1 [Example 58, 1-Cyclopentylamino-4-(4-pyridylmethyl)phthalazine]

IC50 (PDGF-receptor kinase) [nM]	melting point [°C]	IC50 [1] [nM]	Compound
–	193 to 195	1200	CCOc1cccc(Nc2nnc(Cc3ccncc3)c3ccccc23)c1 [Example 67F]
–	175 to 176	747	Cc1ccc(Oc2nnc(Cc3ccncc3)c3ccccc23)cc1 [Example 72C]
–	220 to 222	397	Clc1ccc(Nc2nnc(Cc3ccncc3)c3ncccc23)cc1 [Example 73, 5-(4-Chloroanilino)-8-(4-pyridylmethyl)pyrido[2,3-d]pyridazine]
–	174 to 175	349	Cc1cc(C)cc(Nc2nnc(Cc3ccncc3)c3ccccc23)c1 [Example 46, 1-(3,5-Dimethylanilino)-4-(4-pyridylmethyl)phthalazine]
–	176 to 178	615	FC(F)(F)Oc1cccc(Nc2nnc(Cc3ccncc3)c3ccccc23)c1 [Example 67H]
–	181 to 183	11400	Clc1ccc(Nc2nnc(Cc3ccncc3)c3c2CCCC3)cc1 [Example 44H, 1-(4-Chloroanilino) 4-(4-pyridylmethyl)-5,6,7,8-tetrahydrophthalazine]
–	196 to 197	1000	Clc1ccc(Nc2nnc(Cc3ccncc3)c3cccnc23)cc1 [Example 74, 8-(4-Chloroanilino)-5-(4-pyridylmethyl)pyrido[2,3-d]pyridazine]
–	249 to 250	410	Clc1ccc(Nc2nnc(Cc3ccncc3)c3ccccc23)cc1Cl [Example 21, 1-(3,4-Dichloroanilino)-4-(4-pyridylmethyl)phthalazine]
–	141 to 143	9070	Cc1cccc(Nc2nnc(Cc3ccncc3)c3ccccc23)c1 [Example 43, 1-(3-Methylanilino)-4-(4-pyridylmethyl)phthalazine]
–	239 to 241	730	Oc1ccc(Nc2nnc(Cc3ccncc3)c3ccccc23)cc1 [Example 19, 1-(4-Hydroxyanilino)-4-(4-pyridylmethyl)phthalazine]
–	137 to 139	16000	c1ccc2c(NC3CCCCC3)nnc(Cc3ccncc3)c2c1 [Example 57, 1-Cyclohexylamino-4-(4-pyridylmethyl)phthalazine]
–	204 to 206	1200	Clc1ccc(Sc2nnc(Cc3ccncc3)c3ccccc23)cc1 [Example 72E]
–	205 to 206	520	FC(F)(F)c1ccc(Nc2nnc(Cc3ccncc3)c3ccccc23)cc1 [Example 16, 1-(4-Trifluoromethylanilino)-4-(4-pyridylmethyl)phthalazine]
–	194 to 196	593	COc1ccc(Oc2nnc(Cc3ccncc3)c3ccccc23)cc1 [Example 72D]
–	142 to 143	970	c1ccc(COc2cccc(Nc3nnc(Cc4ccncc4)c4ccccc34)c2)cc1 [Example 9, 1-(3-Benzyloxyanilino)-4-(4-pyridylmethyl)phthalazine]
–	152 to 153	154	Cc1ccc(Nc2nnc(Cc3ccncc3)c3ccccc23)cc1 [Example 37, 1-(4-Methylanilino)-4-(4-pyridylmethyl)phthalazine]
–	223 to 224	330	COc1ccc(Nc2nnc(Cc3ccncc3)c3ccccc23)cc1 [Example 8, 1-(4-Methoxyanilino)-4-(4-pyridylmethyl)phthalazine]
